Measured values published in patent publication US11395857B2, “Radiolabeled melanocortin 1 receptor-specific alpha-melanocyte-stimulating hormone analogues for imaging or therapy” (PROVINCIAL HEALTH SERVICES AUTHORITY, priority 2018, dated 2022).

Tests used:
[1] = system: B16F10 mouse melanoma; experiment: Biodistribution of 177Lu-labeled αMSH analogues in mice bearing B16F10 mouse melanoma; format: in vivo, C57BL/6J mice; settings: among six αMSH analogues
Method: The B16-F10 mouse melanoma cells were cultured and inoculated in mice as described in Example 1.
For biodistribution studies, approximately 1-2 MBq of ^177Lu-labeled αMSH analogues via tail vein under anesthesia. At 1, 4, 24, and 120 h p.i., the mice were euthanized by CO2 inhalation. Organs/tissues were harvested and the radioactivity was measured as described in Example 1.

[2] = Biodistribution of 177Lu-labeled αMSH analogues in mice bearing SK-MEL-1 human melanoma; settings: male, mouse, total radioactivity; for tissue to tissue ratio at 1 h: 1 h p.i.; for tissue to tissue ratio at 1 h / tissue to tissue ratio at 4 h / tissue to tissue ratio at 24 h / tissue to tissue ratio at 120 h: NRG mice, SK-MEL-1 melanoma; for tissue to tissue ratio at 4 h: 4 h p.i.; for tissue to tissue ratio at 24 h: 24 h p.i.; for tissue to tissue ratio at 120 h: 120 h p.i.
Method: The SK-MEL-1 human melanoma cell line (HTB-67) was obtained commercially from ATCC. SK-MEL-1 cells were cultured in Eagle's Minimum Essential Medium (StemCell Technologies) under the same conditions as described in Example 1. Immunodeficient NOD.Cg-Rag1tm1Mom I12rgtm1Wjl/SzJ (NRG) male mice were obtained from an in-house breeding colony at the BC Cancer Research Centre. For tumor implantation, male NRG mice were anesthetized by inhalation with 2% isoflurane, and 5 million SK-MEL-1 cells were inoculated subcutaneously on the right dorsal flank. Mice were used for imaging or biodistribution studies when the tumors reached 6-8 mm in diameter in 16-20 days.
Biodistribution studies were performed as described in Example 3.

[3] = NRG (NOD.Cg-Rag1tm1Mom I12rgtm1Wjl/SzJ), fat, iv
[4] = NRG (NOD.Cg-Rag1tm1Mom I12rgtm1Wjl/SzJ), seminal glands, iv
[5] = NRG (NOD.Cg-Rag1tm1Mom Il2rgtm1Wjl/SzJ), SK-MEL-1 tumour
[6] = NRG (NOD.Cg-Rag1tm1Mom Il2rgtm1Wjl/SzJ), adrenal glands
[7] = NRG (NOD.Cg-Rag1tm1Mom Il2rgtm1Wjl/SzJ), blood
[8] = NRG (NOD.Cg-Rag1tm1Mom Il2rgtm1Wjl/SzJ), bone
[9] = NRG (NOD.Cg-Rag1tm1Mom Il2rgtm1Wjl/SzJ), brain
[10] = NRG (NOD.Cg-Rag1tm1Mom Il2rgtm1Wjl/SzJ), heart
[11] = NRG (NOD.Cg-Rag1tm1Mom Il2rgtm1Wjl/SzJ), intestine
[12] = NRG (NOD.Cg-Rag1tm1Mom Il2rgtm1Wjl/SzJ), kidneys
[13] = NRG (NOD.Cg-Rag1tm1Mom Il2rgtm1Wjl/SzJ), liver
[14] = NRG (NOD.Cg-Rag1tm1Mom Il2rgtm1Wjl/SzJ), lungs
[15] = NRG (NOD.Cg-Rag1tm1Mom Il2rgtm1Wjl/SzJ), muscle
[16] = NRG (NOD.Cg-Rag1tm1Mom Il2rgtm1Wjl/SzJ), pancreas
[17] = NRG (NOD.Cg-Rag1tm1Mom Il2rgtm1Wjl/SzJ), spleen
[18] = NRG (NOD.Cg-Rag1tm1Mom Il2rgtm1Wjl/SzJ), stomach
[19] = NRG (NOD.Cg-Rag1tm1Mom Il2rgtm1Wjl/SzJ), testes
[20] = NRG (NOD.Cg-Rag1tm1Mom Il2rgtm1Wjl/SzJ), thyroid
[21] = NRG (NOD.Cg-Rag1tm1Mom Il2rgtm1Wjl/SzJ), tumour/blood
[22] = NRG (NOD.Cg-Rag1tm1Mom Il2rgtm1Wjl/SzJ), tumour/kidney
[23] = NRG (NOD.Cg-Rag1tm1Mom Il2rgtm1Wjl/SzJ), tumour/muscle
[24] = NRG (NOD.Cg-Rag1tm1Mom Il2rgtm1Wjl/SzJ), urine

With `CCCC[C@H](NC(=O)CN1CCC(NC(=O)[C@H](CCCCNC(=O)CN2CCN(CC(=O)O)CCN(CC(=O)O)CCN(CC(=O)O)CC2)NC(=O)[C@H](CCC(=O)O)NC(=O)CCCc2ccc(I)cc2)CC1)C(=O)N[C@H]1CC(=O)NCCCC[C@@H](C(N)=O)N(C)C(=O)[C@H](Cc2c[nH]c3ccccc23)NC(=O)[C@H](CCCNC(=N)N)N(C)C(=O)[C@@H](Cc2ccccc2)NC(=O)[C@H](Cc2c[nH]cn2)NC1=O` [CCZ01118, [4-(p-iodophenyl)butanoyl]-Glu-Lys(DOTA)-Pip-Nle-cyclo[Asp-His-D-Phe-N-Me-Arg-Trp-N-Me-Lys]-NH2] the “Improvement in tumour uptake retention” value [1] was “showed the most improvement in tumour uptake retention”.
For `CCCC[C@H](NC(=O)CN1CCC(NC(=O)[C@H](CCCCNC(=O)CN2CCN(CC(=O)O)CCN(CC(=O)O)CCN(CC(=O)O)CC2)NC(=O)CNC(=O)CCCc2ccc(I)cc2)CC1)C(=O)N[C@H]1CC(=O)NCCCC[C@@H](C(N)=O)N(C)C(=O)[C@H](Cc2c[nH]c3ccccc23)NC(=O)[C@H](CCCNC(=N)N)N(C)C(=O)[C@@H](Cc2ccccc2)NC(=O)[C@H](Cc2c[nH]cn2)NC1=O` [^177Lu-labeled CCZ01148, metal not drawn], the tissue uptake at 1 h [2, 3] was 2.4 ± 0.39 %ID/g, the tissue uptake at 4 h [2, 3] was 2.69 ± 0.38 %ID/g and the tissue uptake at 24 h [2, 3] was 2.1 ± 0.53 %ID/g. For the same molecule, the tissue uptake at 120 h [2, 3] was 1.13 ± 0.55 %ID/g, the tissue uptake at 1 h [2, 4] was 1.81 ± 0.6 %ID/g and the tissue uptake at 4 h [2, 4] was 1.66 ± 0.51 %ID/g. The tissue uptake at 24 h [2, 4] was 1.22 ± 0.11 %ID/g, the tissue uptake at 120 h [2, 4] was 0.44 ± 0.12 %ID/g and the tissue uptake at 1 h [2, 5] was 6.62 ± 1.37 %ID/g. For the same molecule, the tissue uptake at 4 h [2, 5] was 9.46 ± 1.59 %ID/g, the tissue uptake at 24 h [2, 5] was 30.5 ± 2.72 %ID/g and the tissue uptake at 120 h [2, 5] was 26.5 ± 4.52 %ID/g. It also gave a tissue uptake at 1 h [2, 6] of 6.47 ± 2.97 %ID/g, a tissue uptake at 4 h [2, 6] of 5.69 ± 2.19 %ID/g and a tissue uptake at 24 h [2, 6] of 5.66 ± 1.07 %ID/g. For the same molecule, the tissue uptake at 120 h [2, 6] was 4.04 ± 1.06 %ID/g, the tissue uptake at 1 h [2, 7] was 32 ± 5.85 %ID/g and the tissue uptake at 4 h [2, 7] was 22.7 ± 1.5 %ID/g. For the same molecule, the tissue uptake at 24 h [2, 7] was 14.7 ± 0.98 %ID/g, the tissue uptake at 120 h [2, 7] was 1.93 ± 0.4 %ID/g and the tissue uptake at 1 h [2, 8] was 1.98 ± 0.8 %ID/g. For the same molecule, the tissue uptake at 4 h [2, 8] was 1.38 ± 0.29 %ID/g, the tissue uptake at 24 h [2, 8] was 1.21 ± 0.2 %ID/g and the tissue uptake at 120 h [2, 8] was 0.49 ± 0.17 %ID/g. It also gave a tissue uptake at 1 h [2, 9] of 0.49 ± 0.06 %ID/g, a tissue uptake at 4 h [2, 9] of 0.39 ± 0.05 %ID/g and a tissue uptake at 24 h [2, 9] of 0.32 ± 0.03 %ID/g. The tissue uptake at 120 h [2, 9] was 0.13 ± 0.02 %ID/g, the tissue uptake at 1 h [2, 10] was 7.94 ± 1.58 %ID/g and the tissue uptake at 4 h [2, 10] was 5.71 ± 0.51 %ID/g. It also gave a tissue uptake at 24 h [2, 10] of 4.57 ± 0.51 %ID/g, a tissue uptake at 120 h [2, 10] of 1.4 ± 0.25 %ID/g and a tissue uptake at 1 h [2, 11] of 3.1 ± 1 %ID/g. The tissue uptake at 4 h [2, 11] was 2.26 ± 0.56 %ID/g, the tissue uptake at 24 h [2, 11] was 1.89 ± 0.29 %ID/g and the tissue uptake at 120 h [2, 11] was 0.54 ± 0.1 %ID/g. The tissue uptake at 1 h [2, 12] was 12.5 ± 3.49 %ID/g, the tissue uptake at 4 h [2, 12] was 9.78 ± 1.28 %ID/g and the tissue uptake at 24 h [2, 12] was 9.72 ± 1.38 %ID/g. The tissue uptake at 120 h [2, 12] was 4.08 ± 0.78 %ID/g, the tissue uptake at 1 h [2, 13] was 7.36 ± 1.58 %ID/g and the tissue uptake at 4 h [2, 13] was 7.11 ± 1.5 %ID/g. For the same molecule, the tissue uptake at 24 h [2, 13] was 8.35 ± 1.86 %ID/g, the tissue uptake at 120 h [2, 13] was 4.38 ± 1.08 %ID/g and the tissue uptake at 1 h [2, 14] was 17.6 ± 5.68 %ID/g. For the same molecule, the tissue uptake at 4 h [2, 14] was 11.8 ± 2.51 %ID/g, the tissue uptake at 24 h [2, 14] was 9.06 ± 1.04 %ID/g and the tissue uptake at 120 h [2, 14] was 2.35 ± 0.54 %ID/g. It also gave a tissue uptake at 1 h [2, 15] of 2.13 ± 0.4 %ID/g, a tissue uptake at 4 h [2, 15] of 1.96 ± 0.3 %ID/g and a tissue uptake at 24 h [2, 15] of 1.5 ± 0.19 %ID/g. It also gave a tissue uptake at 120 h [2, 15] of 0.31 ± 0.07 %ID/g, a tissue uptake at 1 h [2, 16] of 3.09 ± 0.53 %ID/g and a tissue uptake at 4 h [2, 16] of 2.55 ± 0.15 %ID/g. The tissue uptake at 24 h [2, 16] was 2.27 ± 0.34 %ID/g, the tissue uptake at 120 h [2, 16] was 0.7 ± 0.13 %ID/g and the tissue uptake at 1 h [2, 17] was 5.65 ± 1.09 %ID/g. The tissue uptake at 4 h [2, 17] was 4.21 ± 1.31 %ID/g, the tissue uptake at 24 h [2, 17] was 6.19 ± 1 %ID/g and the tissue uptake at 120 h [2, 17] was 6.86 ± 2.08 %ID/g. The tissue uptake at 1 h [2, 18] was 1.03 ± 0.45 %ID/g, the tissue uptake at 4 h [2, 18] was 1.02 ± 0.53 %ID/g and the tissue uptake at 24 h [2, 18] was 1.44 ± 0.28 %ID/g. It also gave a tissue uptake at 120 h [2, 18] of 0.47 ± 0.12 %ID/g, a tissue uptake at 1 h [2, 19] of 4.23 ± 0.94 %ID/g and a tissue uptake at 4 h [2, 19] of 5.09 ± 0.82 %ID/g. The tissue uptake at 24 h [2, 19] was 4.89 ± 0.87 %ID/g, the tissue uptake at 120 h [2, 19] was 3.03 ± 0.37 %ID/g and the tissue uptake at 1 h [2, 20] was 7.45 ± 1.35 %ID/g. It also gave a tissue uptake at 4 h [2, 20] of 6.83 ± 0.84 %ID/g, a tissue uptake at 24 h [2, 20] of 11.6 ± 1.26 %ID/g and a tissue uptake at 120 h [2, 20] of 12.4 ± 2.26 %ID/g. The tissue to tissue ratio at 1 h [2, 21] was 0.21 ± 0.02, the tissue to tissue ratio at 4 h [2, 21] was 0.42 ± 0.04 and the tissue to tissue ratio at 24 h [2, 21] was 2.08 ± 0.26. For the same molecule, the tissue to tissue ratio at 1 h [2, 22] was 0.54 ± 0.07, the tissue to tissue ratio at 4 h [2, 22] was 0.96 ± 0.04 and the tissue to tissue ratio at 24 h [2, 22] was 3.19 ± 0.46. For the same molecule, the tissue to tissue ratio at 120 h [2, 22] was 6.57 ± 0.71, the tissue to tissue ratio at 1 h [2, 23] was 3.11 ± 0.29 and the tissue to tissue ratio at 4 h [2, 23] was 4.85 ± 0.53. It also gave a tissue to tissue ratio at 24 h [2, 23] of 20.5 ± 2.51, a tissue to tissue ratio at 120 h [2, 23] of 91.3 ± 35.8 and an excreta dose per gram or mL at 1 h [2, 24] of 51 ± 21.8 %ID/g. For the same molecule, the excreta dose per gram or mL at 4 h [2, 24] was 11.2 ± 6.54 %ID/g, the excreta dose per gram or mL at 24 h [2, 24] was 20.4 ± 7.69 %ID/g and the excreta dose per gram or mL at 120 h [2, 24] was 6.46 ± 1.57 %ID/g.
